For three molecules, IC50 results are on record in ChEMBL document CHEMBL1121735, “Synthesis and adrenoceptor affinity of some highly polar beta-substituted catecholamines” (J Med Chem, 1981).

Each structure is given as a SMILES string.

Assay [1] deals with Adrenergic receptor alpha. The assay can be described thus: Binding affinity against Alpha adrenergic receptor using [3H]dihydroergocryptine radioligand in rat brain homogenate. It is filed as tissue-based.
For the next assay, the target named is Adrenergic receptor beta (Rattus norvegicus, UniProt P18090+P10608+P26255). The assay can be described thus: Binding affinity against Beta adrenergic receptor using [3H]dihydroalprenolol radioligand in rat brain homogenate. Format: tissue-based.

Consider `CC(C)NCC(c1ccc(O)c(O)c1)S(=O)(=O)O` (racemic), for which the IC50 in assay [1] is recorded as 0.000033 M l-1; on Adrenergic receptor beta, 9.1e-6 M l-1.

For `NCC(c1ccc(O)c(O)c1)S(=O)(=O)O` (racemic), the IC50 in assay [1] is 3.6e-6 M l-1; on Adrenergic receptor beta it was 0.00013 M l-1.

Consider `CNCC(c1ccc(O)c(O)c1)S(=O)(=O)O` (racemic), for which the IC50 stood at 0.00001 M l-1 in assay [1] and 0.00011 M l-1 on Adrenergic receptor beta.
